Tests used:
Format in all cases: in vivo
[1] = system: morningglory (Ipomoea spp.); experiment: Test A pre-/postemergence plant response
Procedure, shortened: (§1)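 Each species was treated preemergence via directed soil spray and postemergence at the one- to two-leaf stage, with compounds formulated in a non-phytotoxic solvent plus surfactant. Visual injury relative to untreated controls was rated after about ten days on a 0–100 scale.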

[2] = system: velvetleaf (Abutilon theophrasti); experiment: Test A pre-/postemergence plant response
Procedure, shortened: as §1

[3] = system: pigweed (Amaranthus retroflexus); experiment: Test A pre-/postemergence plant response
Procedure, shortened: as §1

[4] = system: large crabgrass (Digitaria sanguinalis); experiment: Test A pre-/postemergence plant response
Procedure, shortened: as §1

corn (Zea mays) = experiment: Test A pre-/postemergence plant response
Procedure, shortened: as §1

[5] = system: giant foxtail (Setaria faberii); experiment: Test A pre-/postemergence plant response
Procedure, shortened: as §1

[6] = system: wheat (Triticum aestivum); experiment: Test A pre-/postemergence plant response
Procedure, shortened: as §1

[7] = system: barnyardgrass (Echinochloa crus-galli); experiment: Test A pre-/postemergence plant response
Procedure, shortened: as §1

[8] = system: winter barley (Hordeum vulgare); experiment: Test B postemergence plant response; conditions: for Barley plant response rating (0 to 100 scale): 0 is no effect
Procedure, shortened: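 Plants at the 1- to 4-leaf stage (2 to 18 cm tall), grown in pots of peat moss/vermiculite medium with wetting agent and starter nutrients, received postemergence applications of test chemicals. After 13 to 15 days in a greenhouse, injury was rated visually against untreated controls on a 0 (no effect) to 100 (complete control) scale.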

[9] = system: umbrella sedge (Cyperus difformis); experiment: Test B flooded paddy test; conditions: for Plant response rating, Flood, Sedge, Umbrella: 250 g ai/ha, flooded paddy test, visual rating on 0 to 100 scale (0 no effect, 100 complete control) after 13 to 15 days; for Plant response rating, Sedge, Umbrella: Flood (flooded paddy test), 13 to 15 days; for Sedge, Umbrella plant response rating: Flood, 31 g ai/ha, scale 0 to 100 (0 no effect, 100 complete control)
Procedure, shortened: (§2)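 Flooded-pot test: water raised to 3 cm above soil when treating, compound put in the water, level unchanged thereafter. Plants were at 2 leaves. Readout after 13 to 15 days, visual, relative to controls; 0 signifies no effect and 100 complete control.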

rice (Oryza sativa) = experiment: Test B flooded paddy test; conditions: for Plant response rating, Flood, Rice: 250 g ai/ha, flooded paddy test, visual rating on 0 to 100 scale (0 no effect, 100 complete control) after 13 to 15 days; for Plant response rating, Rice: Flood (flooded paddy test), 13 to 15 days; for Rice plant response rating: Flood, 31 g ai/ha, scale 0 to 100 (0 no effect, 100 complete control)
Procedure, shortened: as §2

[10] = system: ducksalad (Heteranthera limosa); experiment: Test B flooded paddy test; conditions: for Plant response rating, Flood, Ducksalad: 250 g ai/ha, flooded paddy test, visual rating on 0 to 100 scale (0 no effect, 100 complete control) after 13 to 15 days; for Plant response rating, Ducksalad: Flood (flooded paddy test), 13 to 15 days; for Ducksalad plant response rating: Flood, 31 g ai/ha, scale 0 to 100 (0 no effect, 100 complete control)
Procedure, shortened: as §2

[11] = system: barnyardgrass (Echinochloa crus-galli); experiment: Test B flooded paddy test; conditions: for Plant response rating, Flood, Barnyardgrass: 250 g ai/ha, flooded paddy test, visual rating on 0 to 100 scale (0 no effect, 100 complete control) after 13 to 15 days; for Plant response rating, Barnyardgrass: Flood (flooded paddy test), 13 to 15 days; for Barnyardgrass plant response rating: Flood, 31 g ai/ha, scale 0 to 100 (0 no effect, 100 complete control)
Procedure, shortened: as §2

[12] = Postemergence, 125 g ai/ha, 0 to 100 scale where 0 is no effect and 100 is complete control
[13] = Postemergence, 500 g ai/ha, 0 to 100 scale, 0 = no effect, 100 = complete control, approx. ten days
[14] = Preemergence, 125 g ai/ha, 0 to 100 scale, 0 = no effect, 100 = complete control
[15] = Preemergence, 500 g ai/ha, visual injury, 0 to 100 scale (0 no effect, 100 complete control), approx. ten days
[16] = 31 g ai/ha, postemergence, scale 0 to 100, 0 is no effect, 100 is complete control
[17] = 62 g ai/ha, postemergence, 100 is complete control, 13 to 15 days
[18] = Postemergence, 125 g ai/ha, visual rating after 13 to 15 days, scale 0 (no effect) to 100 (complete control)
[19] = 62 g ai/ha, scale of 0 to 100 where 0 is no effect and 100 is complete control
[20] = 125 g ai/ha, scale 0 to 100, 0 is no effect, 100 is complete control
[21] = Postemergence, 125 g ai/ha, visual injury, 0 to 100 scale (0 no effect, 100 complete control), approx. ten days
[22] = Postemergence, 500 g ai/ha, visual injury, 0 to 100 scale (0 no effect, 100 complete control), approx. ten days
[23] = Preemergence, 500 g ai/ha, 0 to 100 scale, 0 = no effect, 100 = complete control

O=C1CCCC(O)=C1C(=O)c1cnc(C2CCCC2)n(-c2ccccc2)c1=O [Compound 92]
Plant response rating, Morningglory [1, 12]: 100
Plant response rating, Morningglory [1, 13]: 100
Plant response rating, Morningglory [1, 14]: 0
Plant response rating, Morningglory [1, 15]: 80
Plant response rating, Velvetleaf [2, 12]: 100
Plant response rating, Velvetleaf [2, 13]: 100
Plant response rating, Velvetleaf [2, 14]: 90
Plant response rating, Velvetleaf [2, 15]: 100
Plant response rating, Pigweed [3, 12]: 100
Plant response rating, Pigweed [3, 13]: 100
Plant response rating, Pigweed [3, 14]: 100
Plant response rating, Pigweed [3, 15]: 100
Plant response rating, Crabgrass, Large [4, 12]: 90
Plant response rating, Crabgrass, Large [4, 13]: 90
Plant response rating, Crabgrass, Large [4, 14]: 90
Plant response rating, Crabgrass, Large [4, 15]: 100
Plant response rating, Corn (corn (Zea mays); [12]): 0
Plant response rating, Corn (corn (Zea mays); [13]): 20
Plant response rating, Corn (corn (Zea mays); [14]): 0
Plant response rating, Corn (corn (Zea mays); [15]): 0
Plant response rating, Foxtail, Giant [5, 12]: 80
Plant response rating, Foxtail, Giant [5, 13]: 90
Plant response rating, Foxtail, Giant [5, 14]: 70
Plant response rating, Foxtail, Giant [5, 15]: 80
Plant response rating, Wheat [6, 12]: 0
Plant response rating, Wheat [6, 13]: 0
Plant response rating, Wheat [6, 14]: 0
Plant response rating, Wheat [6, 15]: 0
Plant response rating, Barnyardgrass [7, 12]: 80
Plant response rating, Barnyardgrass [7, 13]: 90
Plant response rating, Barnyardgrass [7, 14]: 60
Plant response rating, Barnyardgrass [7, 15]: 100
Plant response rating, Barley [8, 16]: 0
Barley plant response rating (0 to 100 scale) [8, 17]: 0
Plant response rating, Barley [8, 18]: 0
Plant response rating, Barley ([8]; Postemergence, 250 g ai/ha, scale 0 to 100 (0 no effect, 100 complete control)): 0
Plant response rating, Flood, Sedge, Umbrella [9]: 85
Plant response rating, Sedge, Umbrella [9, 19]: 65
Plant response rating, Sedge, Umbrella [9, 20]: 70
Sedge, Umbrella plant response rating [9]: 65
Plant response rating, Flood, Rice (rice (Oryza sativa)): 40
Plant response rating, Rice (rice (Oryza sativa); [19]): 0
Plant response rating, Rice (rice (Oryza sativa); [20]): 25
Rice plant response rating (rice (Oryza sativa)): 0
Plant response rating, Flood, Ducksalad [10]: 85
Plant response rating, Ducksalad [10, 19]: 30
Plant response rating, Ducksalad [10, 20]: 70
Ducksalad plant response rating [10]: 20
Plant response rating, Flood, Barnyardgrass [11]: 45
Plant response rating, Barnyardgrass [11, 19]: 0
Plant response rating, Barnyardgrass [11, 20]: 20
Barnyardgrass plant response rating [11]: 0

O=C1CCCC(O)=C1C(=O)c1cnc(-c2cccc(Br)c2)n(-c2ccccc2)c1=O [Compound 69]
Morningglory plant response rating [1, 21]: 100
Plant response rating, Morningglory [1, 13]: 100
Plant response rating, Morningglory [1, 14]: 0
Plant response rating, Morningglory [1, 15]: 50
Velvetleaf plant response rating [2, 21]: 100
Plant response rating, Velvetleaf [2, 13]: 100
Plant response rating, Velvetleaf [2, 14]: 70
Plant response rating, Velvetleaf [2, 15]: 100
Pigweed plant response rating [3, 21]: 100
Plant response rating, Pigweed [3, 13]: 100
Plant response rating, Pigweed [3, 14]: 100
Plant response rating, Pigweed [3, 15]: 100
Crabgrass, Large plant response rating [4, 21]: 80
Plant response rating, Crabgrass, Large [4, 13]: 100
Plant response rating, Crabgrass, Large [4, 14]: 90
Plant response rating, Crabgrass, Large [4, 15]: 100
Corn plant response rating (corn (Zea mays); [21]): 20
Plant response rating, Corn (corn (Zea mays); [13]): 40
Plant response rating, Corn (corn (Zea mays); [14]): 0
Plant response rating, Corn (corn (Zea mays); [15]): 0
Foxtail, Giant plant response rating [5, 21]: 80
Plant response rating, Foxtail, Giant [5, 13]: 90
Plant response rating, Foxtail, Giant [5, 14]: 40
Plant response rating, Foxtail, Giant [5, 15]: 70
Wheat plant response rating [6, 21]: 0
Plant response rating, Wheat [6, 13]: 10
Plant response rating, Wheat [6, 14]: 0
Plant response rating, Wheat [6, 15]: 10
Barnyardgrass plant response rating [7, 21]: 90
Plant response rating, Barnyardgrass [7, 13]: 100
Plant response rating, Barnyardgrass [7, 14]: 10
Plant response rating, Barnyardgrass [7, 15]: 60
Plant response rating, Barley ([8]; 16 g ai/ha, Postemergence, 0 to 100 scale): 0
Plant response rating, Barley [8, 16]: 5
Barley plant response rating (0 to 100 scale) [8, 17]: 5
Plant response rating, Barley [8, 18]: 15
Plant response rating, Flood, Sedge, Umbrella [9]: 40
Plant response rating, Sedge, Umbrella [9, 19]: 0
Plant response rating, Sedge, Umbrella [9, 20]: 0
Sedge, Umbrella plant response rating [9]: 0
Plant response rating, Flood, Rice (rice (Oryza sativa)): 0
Plant response rating, Rice (rice (Oryza sativa); [19]): 0
Plant response rating, Rice (rice (Oryza sativa); [20]): 0
Rice plant response rating (rice (Oryza sativa)): 0
Plant response rating, Flood, Ducksalad [10]: 20
Plant response rating, Ducksalad [10, 19]: 0
Plant response rating, Ducksalad [10, 20]: 0
Ducksalad plant response rating [10]: 0
Plant response rating, Flood, Barnyardgrass [11]: 30
Plant response rating, Barnyardgrass [11, 19]: 0
Plant response rating, Barnyardgrass [11, 20]: 20
Barnyardgrass plant response rating [11]: 0

CCn1c(-c2cccc(F)c2)ncc(C(=O)C2=C(O)C3CCC(C3)C2=O)c1=O (stereo not drawn) [Compound 236]
Plant response rating, Morningglory [1, 12]: 100
Morningglory plant response rating [1, 22]: 100
Plant response rating, Morningglory [1, 14]: 70
Plant response rating, Morningglory [1, 23]: 80
Plant response rating, Velvetleaf [2, 12]: 100
Velvetleaf plant response rating [2, 22]: 100
Plant response rating, Velvetleaf [2, 14]: 80
Plant response rating, Velvetleaf [2, 23]: 100
Plant response rating, Pigweed [3, 12]: 80
Pigweed plant response rating [3, 22]: 100
Plant response rating, Pigweed [3, 14]: 80
Plant response rating, Pigweed [3, 23]: 90
Plant response rating, Crabgrass, Large [4, 12]: 80
Crabgrass, Large plant response rating [4, 22]: 90
Plant response rating, Crabgrass, Large [4, 14]: 80
Plant response rating, Crabgrass, Large [4, 23]: 100
Plant response rating, Corn (corn (Zea mays); [12]): 20
Corn plant response rating (corn (Zea mays); [22]): 50
Plant response rating, Corn (corn (Zea mays); [14]): 0
Plant response rating, Corn (corn (Zea mays); [23]): 10
Plant response rating, Foxtail, Giant [5, 12]: 70
Foxtail, Giant plant response rating [5, 22]: 90
Plant response rating, Foxtail, Giant [5, 14]: 40
Plant response rating, Foxtail, Giant [5, 23]: 70
Plant response rating, Wheat [6, 12]: 0
Wheat plant response rating [6, 22]: 40
Plant response rating, Wheat [6, 14]: 0
Plant response rating, Wheat [6, 23]: 30
Plant response rating, Barnyardgrass [7, 12]: 90
Barnyardgrass plant response rating [7, 22]: 90
Plant response rating, Barnyardgrass [7, 14]: 50
Plant response rating, Barnyardgrass [7, 23]: 90
Plant response rating, Barley ([8]; Postemergence, 31 g ai/ha, 0 to 100 scale (0 no effect, 100 complete control)): 0
Plant response rating, Barley ([8]; Postemergence, 125 g ai/ha, scale 0 to 100 (0 no effect, 100 complete control)): 0
Plant response rating, Barley ([8]; Postemergence, 250 g ai/ha, scale 0 to 100 (0 no effect, 100 complete control), 13 to 15 days): 0
Plant response rating, Barley ([8]; Postemergence, 62 g ai/ha, scale 0 to 100 (0 no effect, 100 complete control)): 0
Plant response rating, Flood, Sedge, Umbrella [9]: 40
Plant response rating, Sedge, Umbrella [9, 19]: 0
Plant response rating, Sedge, Umbrella [9, 20]: 0
Sedge, Umbrella plant response rating [9]: 0
Plant response rating, Flood, Rice (rice (Oryza sativa)): 0
Plant response rating, Rice (rice (Oryza sativa); [19]): 0
Plant response rating, Rice (rice (Oryza sativa); [20]): 0
Rice plant response rating (rice (Oryza sativa)): 0
Plant response rating, Flood, Ducksalad [10]: 70
Plant response rating, Ducksalad [10, 19]: 0
Plant response rating, Ducksalad [10, 20]: 60
Ducksalad plant response rating [10]: 0
Plant response rating, Flood, Barnyardgrass [11]: 20
Plant response rating, Barnyardgrass [11, 19]: 0
Plant response rating, Barnyardgrass [11, 20]: 0
Barnyardgrass plant response rating [11]: 0

Source: US8952024B2, “Herbicidal pyrimidone derivatives” (E I du Pont de Nemours and Company, priority 2009, dated 2015)
